Where only a bound is given, the exact number is not on record here.

The results in this text go back to patent US10730887B2, “Compound containing tricyclic heteroaryl group” (Hangzhou Innogate Pharma Co., Ltd., priority 2016, dated 2020).

Data set [1] concerns the target CDK2/CycA2 (Homo sapiens, UniProt P24941). Briefly: CDK2 kinase activity inhibition, Caliper mobility shift assay. The format is biochemical. As for the experimental part: (§1) CDK2/CycA2, CDK4/CycD3 and CDK6/cycD3 protein kinase activities were determined using the Caliper mobility shift assay. The compound was dissolved in DMSO and diluted with kinase buffer (CDK2/CycA2 and CDK6/cycD3 with 50 mM HEPES (pH 7.5), 10 mM MgCl2, 0.0015% Brij-35, and 2 mM dithiothreitol; CDK4/CycD3 with 20 mM HEPES (pH 7.5), 10 mM MgCl2, 0.01% Triton X-100, and 2 mM dithiothreitol), 5 μl of a 5-fold final concentration of the compound (10% DMSO) was added to a 384-well plate. Add 10 μL of 2.5-fold […] enzyme solution and incubate for 10 minutes at room temperature, then add 10 μL of 2.5-fold substrate solution (corresponding enzyme and substrate concentration CDK2/CycA2 12 nM, ATP Kin 39 μM; CDK4/CycD3 10 nM, ATP Km 221 μM; CDK6/cycD3 15 nM, ATP Km […]) Incubate at 28° C. (60 min CDK2, 180 min CDK4, 60 min CDK6) followed by 25 μl stop solution (100 mM HEPES (pH 7.5), 0.015% Brij-35, 0.2% Coating Reagent #3, 50 mM EDTA) Stop the reaction. Conversion rate data was read on a Caliper EZ Reader 11 (Caliper Life Sciences). The conversion rate was converted into inhibition rate data (% inhibition rate=(max−conversion rate)/(max−min)*100) Where max is the conversion of the DMSO control and min is the conversion of the enzyme-free control. Curves were plotted with compound concentration and inhibition rate on the horizontal and vertical coordinates, and the curve was fitted using XLFit excel add-in version 4.3.1 software and IC50 was calculated.

For data set [2], the target named is CDK4/CycD3 (Homo sapiens, UniProt P11802). Nature of the data set: CDK4 kinase activity inhibition, Caliper mobility shift assay. Type of data set: biochemical. The method, then: as §1
Chain of CDK4/CycD3 (P11802 whole entry, species assumed): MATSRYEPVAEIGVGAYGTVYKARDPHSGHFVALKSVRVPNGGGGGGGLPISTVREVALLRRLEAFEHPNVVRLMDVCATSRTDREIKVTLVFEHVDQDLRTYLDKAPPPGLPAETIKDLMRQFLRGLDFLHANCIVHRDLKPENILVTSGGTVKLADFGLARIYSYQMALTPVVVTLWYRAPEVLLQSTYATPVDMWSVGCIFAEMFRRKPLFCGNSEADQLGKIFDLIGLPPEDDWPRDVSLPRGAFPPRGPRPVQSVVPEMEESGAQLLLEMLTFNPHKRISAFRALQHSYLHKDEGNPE
Chain of CDK4/CycD3 (P30281 whole entry partner, species assumed): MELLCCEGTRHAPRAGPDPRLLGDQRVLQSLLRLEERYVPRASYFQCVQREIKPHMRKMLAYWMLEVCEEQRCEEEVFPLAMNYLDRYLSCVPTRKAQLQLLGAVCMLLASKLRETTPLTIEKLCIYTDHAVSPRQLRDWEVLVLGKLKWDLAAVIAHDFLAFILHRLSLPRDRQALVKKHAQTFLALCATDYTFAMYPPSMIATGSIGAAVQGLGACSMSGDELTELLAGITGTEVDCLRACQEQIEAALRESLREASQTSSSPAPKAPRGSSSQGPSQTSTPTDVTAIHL
Data set [3] has as its target CDK6/cycD3 (Homo sapiens, UniProt Q00534). Briefly: CDK6 kinase activity inhibition, Caliper mobility shift assay. Type of data set: biochemical. As for the experimental part: as §1
Data set [4] in a line: Pharmacokinetic study in mice, intragastric administration. The format is in vivo. Conditions: mouse, male ICR mice, PO dose 5 mg/kg, plasma. The method, then: Instrument: API4000+LC/MS instrument manufactured by AB Sciex. All measurement data was collected and processed by Analyst 1.6.3 software, and data was calculated and processed by Microsoft Excel. Using the DAS 3.2.8 software, the statistical moment method was used to calculate the pharmacokinetic parameters. t mainly includes kinetic parameters Tmax, T½, Cmax, AUC(0-t) and the like Column: ACQUITY UPLC BEH C18 (2.1 mm×50 mm, 1.7 μm), column temperature 40° C.; mobile phase A is water (0.1% formic acid+5 mM ammonium acetate), mobile phase B is acetonitrile (0.1% acetic acid). The flow rate was 0.30 ml/min and the isocratic elution of 90% B was maintained for 1.5 minutes. Injection volume: 5 μL.
Animals: 12 male ICR mice, weighing 22-26 g, were used after 2 days of feeding in the laboratory of the experimental animal center. They were fasted 12 hours before the administration and 4 hours after the administration, and were free to drink during the test. Mice were randomly divided into four groups of 3 animals each. After intragastric administration, blood samples were taken at two different time points in each group.
Solvent: 0.5% Methylcellulose (aqueous solution containing 0.4% Tween 80). Formulation of intragastric administration solution. The compound is accurately weighed, added to the solvent, and sonicated at room temperature for 5 minutes to completely dissolve the drug to prepare a drug solution of 0.33 mg/ml.
Drug sample: A representative compound of the structure represented by the patent formula (I) of the present invention generally adopts a plurality of samples having similar structures (molecular weight difference of more than 2 units), accurately weighed, and administered together (cassette PK). This allows multiple compounds to be screened simultaneously and their oral absorption rates compared. Single drug administration was also used to study the pharmacokinetics of drug samples in mice.
Blood was taken from the eyelids at 0.25, 0.5, 1, 2, 4, 8, 12, and 24 hours after intragastric administration. In the heparin-treated tube, the supernatant was centrifuged for LC-MS/MS analysis.
Accurately weigh the compounds to different concentrations, perform quantitative analysis on the mass spectrometer to establish a standard curve, and then test the concentration of the compound in the above plasma to obtain the concentration of the compound at different time points. All the measured data were collected and processed by the relevant software, and the statistical moment method was used to calculate the pharmacokinetic parameters (mainly including the kinetic parameters Tmax, T1/2, Cmax, AUC(0-t), etc.).

Data set [5] addresses T1, FLT3 (Homo sapiens, UniProt P36888).
T1 sequence (P36888 27-993): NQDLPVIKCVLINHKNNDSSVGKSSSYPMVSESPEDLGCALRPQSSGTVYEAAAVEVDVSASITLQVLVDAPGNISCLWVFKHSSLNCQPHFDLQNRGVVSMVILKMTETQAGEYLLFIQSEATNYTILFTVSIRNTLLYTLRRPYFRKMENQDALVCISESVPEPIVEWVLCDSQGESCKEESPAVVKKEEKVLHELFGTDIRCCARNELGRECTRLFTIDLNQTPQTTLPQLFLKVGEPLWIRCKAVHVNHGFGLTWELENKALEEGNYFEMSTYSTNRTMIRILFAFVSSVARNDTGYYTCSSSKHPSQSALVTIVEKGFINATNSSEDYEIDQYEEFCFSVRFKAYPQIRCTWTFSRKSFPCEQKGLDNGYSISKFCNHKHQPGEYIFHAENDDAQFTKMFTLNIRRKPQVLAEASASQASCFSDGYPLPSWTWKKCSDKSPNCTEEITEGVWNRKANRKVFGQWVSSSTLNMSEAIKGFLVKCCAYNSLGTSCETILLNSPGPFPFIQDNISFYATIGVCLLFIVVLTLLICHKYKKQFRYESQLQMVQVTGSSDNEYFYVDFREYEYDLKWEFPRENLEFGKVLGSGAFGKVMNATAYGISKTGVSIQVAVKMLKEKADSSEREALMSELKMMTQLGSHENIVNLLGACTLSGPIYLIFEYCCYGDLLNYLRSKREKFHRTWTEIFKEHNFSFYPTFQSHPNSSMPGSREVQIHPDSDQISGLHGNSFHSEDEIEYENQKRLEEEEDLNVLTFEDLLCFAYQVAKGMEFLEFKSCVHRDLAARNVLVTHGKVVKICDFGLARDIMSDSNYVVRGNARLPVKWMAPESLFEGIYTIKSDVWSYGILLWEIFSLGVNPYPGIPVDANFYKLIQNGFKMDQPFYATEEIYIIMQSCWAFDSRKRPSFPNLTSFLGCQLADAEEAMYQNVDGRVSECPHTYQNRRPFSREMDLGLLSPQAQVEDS
Briefly: FLT3 kinase activity inhibition, Caliper mobility shift assay. Type of data set: biochemical. The method, then:
FLT3 protein kinase activity was measured using the Caliper mobility shift assay. The compound was dissolved in DMSO and diluted with a kinase buffer (50 mM HEPES, pH 7.5, 0.0015% Brij-35, 2 mM DTT), and 5 μL of a 5-fold final concentration of the compound (10% DMSO) was added to a 384-well plate. After adding 10 μL of 2.5-fold FLT3 enzyme solution, incubate for 10 minutes at room temperature, and then add 10 μL of a 2.5-fold substrate (FAM-labeled polypeptide and ATP) solution. After incubation at 28° C. for 60 minutes, the reaction was stopped by adding 25 μL of stop solution (100 mM HEPES, 0.015% Brij-35, 0.2% Coating Reagent #3, 50 mM EDTA, pH 7.5). Conversion rate data was read on a Caliper EZ Reader II (Caliper Life Sciences). The conversion rate was converted into inhibition rate data (% inhibition rate=(max−conversion rate)/(max−min)*100). Where max is the conversion of the DMSO control and min is the conversion of the enzyme-free control Curves were plotted with compound concentration and inhibition rate on the horizontal and vertical coordinates, and the curve was fitted using XLFit excel add-in version 4.3.1 software and IC50 was calculated.

For data set [6], the target named is T2, Axl (Homo sapiens, UniProt P30530).
T2 sequence (P30530 26-894): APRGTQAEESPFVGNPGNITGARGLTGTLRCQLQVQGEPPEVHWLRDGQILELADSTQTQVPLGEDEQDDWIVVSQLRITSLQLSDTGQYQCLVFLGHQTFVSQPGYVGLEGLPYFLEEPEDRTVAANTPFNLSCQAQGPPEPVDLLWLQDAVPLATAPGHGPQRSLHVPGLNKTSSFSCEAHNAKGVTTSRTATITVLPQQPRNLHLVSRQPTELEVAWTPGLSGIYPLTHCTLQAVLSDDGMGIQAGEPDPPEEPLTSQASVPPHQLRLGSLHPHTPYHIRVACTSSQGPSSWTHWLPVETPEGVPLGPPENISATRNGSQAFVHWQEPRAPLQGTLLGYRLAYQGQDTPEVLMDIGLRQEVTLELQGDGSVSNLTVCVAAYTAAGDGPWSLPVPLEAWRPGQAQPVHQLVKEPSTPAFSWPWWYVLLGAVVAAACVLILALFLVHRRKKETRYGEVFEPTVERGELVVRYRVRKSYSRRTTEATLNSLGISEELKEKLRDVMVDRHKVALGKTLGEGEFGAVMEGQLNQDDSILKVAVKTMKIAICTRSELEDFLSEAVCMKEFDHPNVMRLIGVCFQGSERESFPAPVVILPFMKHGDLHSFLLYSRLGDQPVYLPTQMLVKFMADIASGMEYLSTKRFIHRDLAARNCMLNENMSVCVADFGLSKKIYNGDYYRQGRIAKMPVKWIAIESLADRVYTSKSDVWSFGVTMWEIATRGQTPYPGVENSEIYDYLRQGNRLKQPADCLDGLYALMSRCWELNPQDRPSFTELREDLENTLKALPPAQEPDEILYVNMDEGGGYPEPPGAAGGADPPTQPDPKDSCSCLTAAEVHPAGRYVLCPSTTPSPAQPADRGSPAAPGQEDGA
Briefly: Axl kinase activity inhibition, Caliper mobility shift assay. Type of data set: biochemical. As for the experimental part: Axl protein kinase activity was determined using the Caliper mobility shift assay. The compound was dissolved in DMSO and diluted with kinase buffer (50 mM HEPES, pH 7.5, 0.0015% Brij-35, 2 mM DTT), and 5 μL of 5 times the final concentration of the compound (10%) was added to the 384-well plate. DMSO). After adding 10 μL of a 2.5-fold Axl enzyme solution, incubate for 10 minutes at room temperature, and then add 10 μL of a 2.5-fold substrate (FAM-labeled polypeptide and ATP) solution. After incubation at 28° C. for 60 minutes, the reaction was stopped by the addition of […] stop solution (100 mM HEPES, 0.015% Brij-35, 0.2% Coating Reagent #3, 50 mM EDTA, pH 7.5). Conversion rate was read on a Caliper EZ Reader II (Caliper Life Sciences). The conversion rate was converted into inhibition rate (% inhibition rate=(max−conversion rate)/(max−min)*100). Where max is the conversion of the DMSO control and min is the conversion of the enzyme-free control. Curves were plotted with compound concentration and inhibition rate on the horizontal and vertical coordinates, and the curve was fitted using XLFit excel add-in version 4.3.1 software and IC50 was calculated.

Chain of CDK6/cycD3 (Q00534 whole entry, species assumed): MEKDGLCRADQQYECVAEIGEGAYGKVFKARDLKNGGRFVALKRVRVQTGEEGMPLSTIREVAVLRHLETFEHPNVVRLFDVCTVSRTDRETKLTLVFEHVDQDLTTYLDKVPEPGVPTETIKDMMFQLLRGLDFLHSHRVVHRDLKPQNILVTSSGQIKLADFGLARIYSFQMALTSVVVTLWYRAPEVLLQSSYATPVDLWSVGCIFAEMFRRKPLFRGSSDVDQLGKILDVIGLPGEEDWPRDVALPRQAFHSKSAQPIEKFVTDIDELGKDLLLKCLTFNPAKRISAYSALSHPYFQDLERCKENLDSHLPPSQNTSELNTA
Chain of CDK6/cycD3 (P30281 whole entry partner, species assumed): as the sequence (P30281 whole entry partner, species assumed) above

The IC50 is the concentration that gives 50% inhibition. On to `Cc1nc2c(F)cc(-c3nc(Nc4ccc5c(c4)OC[C@H]4CN(C)CCN54)ncc3F)cc2n1C(C)C` [Compound B1R], for which the IC50 in data set [1] is less than 10 nM; in data set [2], less than 10 nM; in data set [3] it was less than 50 nM.
Take `Cc1nc2c(F)cc(-c3nc(Nc4ccc5c(c4)OC[C@@H]4CN(C)CCN54)ncc3F)cc2n1C(C)C` [Compound B1S]: the IC50 is less than 10 nM in data set [1], less than 10 nM in data set [2] and less than 50 nM in data set [3].
By Cmax is commonly meant the peak of the concentration-time curve. By Tmax is commonly meant the time at which the peak concentration occurs. In general, half-life refers to how long it takes for the measured level to halve. Read a low half-life as fast loss. On to `Cc1nc2c(F)cc(-c3nc(Nc4ccc5c(c4)OC[C@H]4CN(C6CCOCC6)CCN54)ncc3F)cc2n1C(C)C` [Compound B2R], for which the half-maximal inhibitory concentration (IC50) was less than 10 nM in data set [1], less than 10 nM in data set [2] and less than 50 nM in data set [3]. Moreover, the highest level in data set [4] (Cmax) was 495 ng/mL. The Tmax in data set [4] is 1 h. Moreover, the half-life in data set [4] was 5.72 h. Also, in data set [4] (read-out: AUC(0-24)), the AUC(0-t) amounted to 2200 ng·h/mL.
Turning to `Cc1nc2c(F)cc(-c3nc(Nc4ccc5c(c4)OC[C@H]4CN(C6CCN(C)CC6)CCN54)ncc3F)cc2n1C(C)C` [Compound B3R], the IC50 in data set [1], in data set [2] and in data set [3] was less than 10 nM each time.
On to `CCc1nc(C(N)=O)c(Nc2ccc3c(c2)OC[C@H]2CN(C)CCN32)nc1NC1CCOCC1` [Compound D1R], for which the IC50 was less than 1 nM in data set [5] and less than 10 nM in data set [6].
Take `CCc1nc(C(N)=O)c(Nc2ccc3c(c2)OC[C@@H]2CN(C)CCN32)nc1NC1CCOCC1` [Compound D1S]: the figures for the IC50 in data set [5] and in data set [6] were less than 1 nM and less than 10 nM, respectively.
On to `CCc1nc(C(N)=O)c(Nc2ccc3c(c2)OC[C@H]2CN(C4CCN(C)CC4)CCN32)nc1NC1CCOCC1` [Compound D6R], for which the concentration for half-maximal inhibition (IC50) is less than 1 nM in data set [5] and less than 10 nM in data set [6].
